Measurements taken from patent US9765213B2, “Drug carriers comprising amphilphilic block copolymers” (BIOCOMPATIBLES UK LIMITED, priority 2002, dated 2017).
Structures can show the parent of a compound that is named as a salt. Numbered stars: 1 amine (or outer) side, 2 acyl side, 3 side chain; on linkers, the order of the positions; unused ones are H or OH. Bridge positions count the residues as written; N and C are the ends. Square brackets hold non-standard residues; d marks the D form. Peptide text beside a SMILES is read from it. I, II: the chains in the order shown. Actinocin(9to1) = Cc1c2oc3c(C)ccc(C(=O)[*:1])c3nc-2c(C(=O)[*:2])c(N)c1=O; NMeV = CN[C@H](C(=O)O)C(C)C; Sar = CNCC(=O)O

How the values were obtained:
[1] = octanol/water; determined experimentally, literature; cited from earlier work
[2] = Dipyridamole loading by pH change; type: physicochemical
Protocol: In another example of drug loading, a solution of the drug dipyridamole was used given the intensely coloured nature of the drug allows simple detection. At pH 2 this drug was dissolved to give a fluorescent green-yellow solution. By adjusting the pH to 9-10 the drug was seen to precipitate.

[3] = Release of solubilised Orange OT dye from micelles by lowered pH (particle size); type: physicochemical
From the text: The release of solubilised Orange OT dye from micelles, as a model for drug release, using lowered pH as the stimuli was examined.

SMILES | LogP (Exp) [1] | also measured
Nc1nc2nc[nH]c2c(=S)[nH]1 [6-Thioguanine] | −0.28 | 
Cc1c2oc3c(C)ccc(C(=O)N[C@@H]4C(=O)N[C@H](C(C)C)C(=O)N5CCC[C@H]5C(=O)N(C)CC(=O)N(C)[C@@H](C(C)C)C(=O)O[C@@H]4C)c3nc-2c(C(=O)N[C@@H]2C(=O)N[C@H](C(C)C)C(=O)N3CCC[C@H]3C(=O)N(C)CC(=O)N(C)[C@@H](C(C)C)C(=O)O[C@@H]2C)c(N)c1=O [Actinomycin] (I: T[dV]P[Sar][NMeV] / II: T[dV]P[Sar][NMeV]; ester I:1-I:C, II:1-II:C; linker I:N-II:N via Actinocin(9to1)) | 0.997 | 
COCc1c(C(C)C)nc(C(C)C)c(/C=C/[C@@H](O)C[C@@H](O)CC(=O)O)c1-c1ccc(F)cc1 [Cerivastatin] | 2.05 | 
O=C1CCc2cc(OCCCCc3nnnn3C3CCCCC3)ccc2N1 [Cilostazol] | 2.3 | 
OCCN(CCO)c1nc(N2CCCCC2)c2nc(N(CCO)CCO)nc(N3CCCCC3)c2n1 [Dipyramidole] |  | solubility behaviour of the drug ([2]; pH 2): dissolved; solubility behaviour of the drug ([2]; pH 9-10): precipitate
C[C@]12CC[C@@H]3c4ccc(O)cc4CC[C@H]3[C@@H]1CC[C@@H]2O [Estradiol] | 4.3 | 
COc1cc([C@@H]2c3cc4c(cc3[C@@H](O[C@@H]3O[C@@H]5CO[C@@H](C)O[C@H]5[C@H](O)[C@H]3O)[C@H]3COC(=O)[C@H]23)OCO4)cc(OC)c1O [Etoposide] | 0.99 | 
O=c1[nH]cc(F)c(=O)[nH]1 [Fluorouracil] | −1 | 
CC(C)n1c(/C=C/C(O)CC(O)CC(=O)O)c(-c2ccc(F)cc2)c2ccccc21 (centres unmarked) [Fluvastatin] | 1.67 | 
CC[C@H](C)C(=O)O[C@H]1C[C@@H](C)C=C2C=C[C@H](C)[C@H](CC[C@@H]3C[C@@H](O)CC(=O)O3)[C@H]21 [Lovastatin] | 1.7 | 
Cc1ccccc1N=Nc1c(O)ccc2ccccc12 [Orange OT] |  | share of the particle population ([3]; pH 4.5, after release from MPC30-DEA60 micelles): 1%; mean particle diameter of released dye aggregates ([3]; released from MPC30-DEA60 micelles, pH reduced to pH 4.5): 113 nm
CC[C@H](C)C(=O)O[C@H]1C[C@H](O)C=C2C=C[C@H](C)[C@H](CC[C@@H](O)C[C@@H](O)CC(=O)O)[C@H]21 [Pravastatin] | −0.23 | 
CC(=O)O[C@H]1C(=O)[C@@]2(C)[C@H]([C@H](OC(=O)c3ccccc3)[C@]3(O)C[C@H](OC(=O)[C@H](O)[C@@H](NC(=O)c4ccccc4)c4ccccc4)C(C)=C1C3(C)C)[C@]1(OC(C)=O)CO[C@@H]1C[C@@H]2O [Taxol] | 3.98 | 
CC[C@]1(O)C[C@@H]2CN(CCc3c([nH]c4ccccc34)[C@@](C(=O)OC)(c3cc4c(cc3OC)N(C)[C@H]3[C@@](O)(C(=O)OC)[C@H](OC(C)=O)[C@]5(CC)C=CCN6CC[C@]43[C@@H]65)C2)C1 [Vinblastine] | 1.68 | 
CC[C@]1(O)C[C@H]2CN(CCc3c([nH]c4ccccc34)[C@@](C(=O)OC)(c3cc4c(cc3OC)N(C=O)[C@H]3[C@@](O)(C(=O)OC)[C@H](OC(C)=O)[C@]5(CC)C=CCN6CC[C@]43[C@@H]65)C2)C1 [Vincristine Sulfate] | 2.14 | 
